{"source": "patent US20220064214A1", "about": "“NOVEL PEPTIDES AND USES THEREOF” (CENNA BIOSCIENCES INC., priority 2019, published 2022)", "key": {"[1]": {"test": "PK analysis of 8M2D in transgenic mice (APPSWE), plasma", "conditions": "mouse, in vivo, sc", "source_text": "Pharmacokinetics (PK) of 8M2D was further analyzed with various doses at days 1 and 13 in transgenic mice (APPSWE (B6; SJL 2576 Kha; Taconic)). See Hsiao et al., Correlative memory deficits, Aβ elevation, and amyloid plaques in transgenic mice. Science 274:99-102 (1996); and Haugabook et al., Reduction of Abeta accumulation in the Tg2576 animal model of Alzheimer's disease after oral administration of the phosphatidyl-inositol kinase inhibitor wortmannin. Faseb J 15:16-18 (2001)."}, "Aß": {"tested_on": "Aß", "test": "Efficacy in reducing Aß in APP transgenic mice (analysis in CSF and brain)", "assay_type": "in vivo", "conditions": "Tg mice over-expressing Aß", "protocol": "Critical to the development of any therapeutic for diseases like AD is the requirement that it can be delivered to the brain. Delivery to brain and efficacy of P8 and 8M2D in reducing Aß was analyzed in the transgenic mice described in Section 6.3 above.\nThe maximum efficacious dose of 8M2D in Tg mice over-expressing Aß is at just over 50 mg/kg. This gives a 65% reduction in Aß 42. […] Experiments are performed to establish the minimum efficacious dose in Tg mice."}}, "note": "Read-outs that look alike come from different tables or passages of the source. Square brackets hold non-standard residues; d marks the D form. Peptide text beside a SMILES is read from it.", "data": [{"smiles": "CC(=O)N[C@H](CC(=O)O)C(=O)N[C@@H](CCC(=O)O)C(=O)N[C@@H](CCC(=O)O)C(=O)N[C@@H](CCC(=O)O)C(=O)N[C@@H](CC(=O)O)C(=O)N[C@@H](CCC(=O)O)C(=O)N[C@@H](CCC(=O)O)C(=O)N[C@@H](CC(C)C)C(N)=O", "note": "[8M2D, Ac-dEEEDEEL-NH2] (Ac-[dD]EEEDEEL-NH2)", "values": [{"measurement": "AUC(0-t)", "setting": "[1]; 10 mg/kg, Day 1, 10 mg/kg, read-out: AUClast", "value": 12800, "unit": "ng·h/mL"}, {"measurement": "CL/F", "setting": "[1]; 10 mg/kg, Day 1, 10 mg/kg, read-out: Cl/F", "value": 13, "unit": "mL/min/kg"}, {"measurement": "Cmax", "setting": "[1]; 10 mg/kg, Day 1, 10 mg/kg, read-out: Cmax", "value": 14.4, "unit": "µg/mL"}, {"measurement": "Tmax", "setting": "[1]; 10 mg/kg, Day 1, 10 mg/kg, read-out: Tmax", "value": 10.2, "unit": "min"}, {"measurement": "Vd/F", "setting": "[1]; 10 mg/kg, Day 1, 10 mg/kg, read-out: Vz/F", "value": 8.84, "unit": "L/kg"}, {"measurement": "half-life", "setting": "[1]; 10 mg/kg, Day 1, 10 mg/kg, read-out: t1/2 (converted)", "value": 474, "unit": "min"}, {"measurement": "AUC(0-t)", "setting": "[1]; 10 mg/kg, Day 13, 10 mg/kg, read-out: AUClast", "value": 11600, "unit": "ng·h/mL"}, {"measurement": "CL/F", "setting": "[1]; 10 mg/kg, Day 13, 10 mg/kg, read-out: Cl/F", "value": 14.1, "unit": "mL/min/kg"}, {"measurement": "Cmax", "setting": "[1]; 10 mg/kg, Day 13, 10 mg/kg, read-out: Cmax", "value": 12.4, "unit": "µg/mL"}, {"measurement": "Tmax", "setting": "[1]; 10 mg/kg, Day 13, 10 mg/kg, read-out: Tmax", "value": 10.2, "unit": "min"}, {"measurement": "Vd/F", "setting": "[1]; 10 mg/kg, Day 13, 10 mg/kg, read-out: Vz/F", "value": 10.2, "unit": "L/kg"}, {"measurement": "half-life", "setting": "[1]; 10 mg/kg, Day 13, 10 mg/kg, read-out: t1/2 (converted)", "value": 504, "unit": "min"}, {"measurement": "AUC(0-t)", "setting": "[1]; 50 mg/kg, Day 1, 50 mg/kg, read-out: AUClast", "value": 70500, "unit": "ng·h/mL"}, {"measurement": "CL/F", "setting": "[1]; 50 mg/kg, Day 1, 50 mg/kg, read-out: Cl/F", "value": 11.8, "unit": "mL/min/kg"}, {"measurement": "Cmax", "setting": "[1]; 50 mg/kg, Day 1, 50 mg/kg, read-out: Cmax", "value": 111, "unit": "µg/mL"}, {"measurement": "Tmax", "setting": "[1]; 50 mg/kg, Day 1, 50 mg/kg, read-out: Tmax", "value": 10.2, "unit": "min"}, {"measurement": "Vd/F", "setting": "[1]; 50 mg/kg, Day 1, 50 mg/kg, read-out: Vz/F", "value": 7.59, "unit": "L/kg"}, {"measurement": "half-life", "setting": "[1]; 50 mg/kg, Day 1, 50 mg/kg, read-out: t1/2 (converted)", "value": 444, "unit": "min"}, {"measurement": "AUC(0-t)", "setting": "[1]; 50 mg/kg, Day 13, 50 mg/kg, read-out: AUClast", "value": 49700, "unit": "ng·h/mL"}, {"measurement": "CL/F", "setting": "[1]; 50 mg/kg, Day 13, 50 mg/kg, read-out: Cl/F", "value": 12.9, "unit": "mL/min/kg"}, {"measurement": "Cmax", "setting": "[1]; 50 mg/kg, Day 13, 50 mg/kg, read-out: Cmax", "value": 73, "unit": "µg/mL"}, {"measurement": "Tmax", "setting": "[1]; 50 mg/kg, Day 13, 50 mg/kg, read-out: Tmax", "value": 10.2, "unit": "min"}, {"measurement": "Vd/F", "setting": "[1]; 50 mg/kg, Day 13, 50 mg/kg, read-out: Vz/F", "value": 148, "unit": "L/kg"}, {"measurement": "half-life", "setting": "[1]; 50 mg/kg, Day 13, 50 mg/kg, read-out: t1/2 (converted)", "value": 7800, "unit": "min"}, {"measurement": "AUC(0-t)", "setting": "[1]; 250 mg/kg, Day 1, 250 mg/kg, read-out: AUClast", "value": 176000, "unit": "ng·h/mL"}, {"measurement": "CL/F", "setting": "[1]; 250 mg/kg, Day 1, 250 mg/kg, read-out: Cl/F", "value": 23.6, "unit": "mL/min/kg"}, {"measurement": "Cmax", "setting": "[1]; 250 mg/kg, Day 1, 250 mg/kg, read-out: Cmax", "value": 207, "unit": "µg/mL"}, {"measurement": "Tmax", "setting": "[1]; 250 mg/kg, Day 1, 250 mg/kg, read-out: Tmax", "value": 10.2, "unit": "min"}, {"measurement": "Vd/F", "setting": "[1]; 250 mg/kg, Day 1, 250 mg/kg, read-out: Vz/F", "value": 5.84, "unit": "L/kg"}, {"measurement": "half-life", "setting": "[1]; 250 mg/kg, Day 1, 250 mg/kg, read-out: t1/2 (converted)", "value": 174, "unit": "min"}, {"measurement": "AUC(0-t)", "setting": "[1]; 250 mg/kg, Day 1, Mean over the 10, 50 and 250 mg/kg doses (N 3), read-out: AUClast, Mean", "value": 86400, "unit": "ng·h/mL"}, {"measurement": "CL/F", "setting": "[1]; 250 mg/kg, Day 1, Mean over the 10, 50 and 250 mg/kg doses (N 3), read-out: Cl/F, Mean", "value": 16.1, "unit": "mL/min/kg"}, {"measurement": "Cmax", "setting": "[1]; 250 mg/kg, Day 1, Mean over the 10, 50 and 250 mg/kg doses (N 3), read-out: Cmax, Mean", "value": 111, "unit": "µg/mL"}, {"measurement": "Tmax", "setting": "[1]; 250 mg/kg, Day 1, Mean over the 10, 50 and 250 mg/kg doses (N 3), read-out: Tmax, Mean", "value": 10, "unit": "min"}, {"measurement": "Vd/F", "setting": "[1]; 250 mg/kg, Day 1, Mean over the 10, 50 and 250 mg/kg doses (N 3), read-out: Vz/F, Mean", "value": 7.42, "unit": "L/kg"}, {"measurement": "half-life", "setting": "[1]; 250 mg/kg, Day 1, Mean over the 10, 50 and 250 mg/kg doses (N 3), read-out: t1/2, Mean (converted)", "value": 364, "unit": "min"}, {"measurement": "AUC(0-t)", "setting": "[1]; 250 mg/kg, Day 13, 250 mg/kg, read-out: AUClast", "value": 290000, "unit": "ng·h/mL"}, {"measurement": "CL/F", "setting": "[1]; 250 mg/kg, Day 13, 250 mg/kg, read-out: Cl/F", "value": 13.5, "unit": "mL/min/kg"}, {"measurement": "Cmax", "setting": "[1]; 250 mg/kg, Day 13, 250 mg/kg, read-out: Cmax", "value": 278, "unit": "µg/mL"}, {"measurement": "Tmax", "setting": "[1]; 250 mg/kg, Day 13, 250 mg/kg, read-out: Tmax", "value": 10.2, "unit": "min"}, {"measurement": "Vd/F", "setting": "[1]; 250 mg/kg, Day 13, 250 mg/kg, read-out: Vz/F", "value": 33.4, "unit": "L/kg"}, {"measurement": "half-life", "setting": "[1]; 250 mg/kg, Day 13, 250 mg/kg, read-out: t1/2 (converted)", "value": 1740, "unit": "min"}, {"measurement": "AUC(0-t)", "setting": "[1]; 250 mg/kg, Day 13, Mean over the 10, 50 and 250 mg/kg doses (N 3), read-out: AUClast, Mean", "value": 117000, "unit": "ng·h/mL"}, {"measurement": "CL/F", "setting": "[1]; 250 mg/kg, Day 13, Mean over the 10, 50 and 250 mg/kg doses (N 3), read-out: Cl/F, Mean", "value": 13.5, "unit": "mL/min/kg"}, {"measurement": "Cmax", "setting": "[1]; 250 mg/kg, Day 13, Mean over the 10, 50 and 250 mg/kg doses (N 3), read-out: Cmax, Mean", "value": 121, "unit": "µg/mL"}, {"measurement": "Tmax", "setting": "[1]; 250 mg/kg, Day 13, Mean over the 10, 50 and 250 mg/kg doses (N 3), read-out: Tmax, Mean", "value": 10, "unit": "min"}, {"measurement": "Vd/F", "setting": "[1]; 250 mg/kg, Day 13, Mean over the 10, 50 and 250 mg/kg doses (N 3), read-out: Vz/F, Mean", "value": 63.8, "unit": "L/kg"}, {"measurement": "half-life", "setting": "[1]; 250 mg/kg, Day 13, Mean over the 10, 50 and 250 mg/kg doses (N 3), read-out: t1/2, Mean (converted)", "value": 3390, "unit": "min"}, {"measurement": "efficacy on increasing the dose 5× (in words)", "setting": "Aß; SC", "value": "only a marginal increase in efficacy"}, {"measurement": "maximum efficacious dose", "setting": "Aß; SC dosing", "value": "over 50 mg/kg"}, {"measurement": "reduction in Aß 42", "setting": "Aß; SC, at the maximum efficacious dose (just over 50 mg/kg)", "value": 65, "unit": "%"}]}]}
